Assay [1] deals with T98G cells. The experiment in a line: Fusion peptide cell killing, propidium iodide/FACS viability, T98G cells. In kind it is cell-based, human. The following applies: 10 μM peptide, 1 hr. Here is the method:
(§1) Other experiments were performed using two glioma cell lines, i.e., T98G and RG2. 1×10^6 cells per well were incubated in 6-well plates with peptides in complete media for 1 hr. Cells were removed from the plate using a cell stripper and the percentage of viable cells was determined by staining with propidium iodide and analyzing by fluorescence activated cell sorting (FACS).
(§2) Cell viability studies were performed by plating the cells under the same conditions as the uptake studies. Cells were incubated with fluorescent peptides for 1 hr at 37° C. The cells were removed from the plate using cell striper. They were labeled with propidium iodide and fluorescein-AM. Percent PI positive cells were determined by FACS.

In assay [2] the test system is RG2 cells. Briefly: Fusion peptide cell killing, propidium iodide/FACS viability, RG2 cells. In kind it is cell-based, rat. Here is the method: as §1
There are 4 conserved amino acid differences between the rat and human CDKI sequence. Both sequences were attached to Tat and tested for cell killing activity in the rat glioma RG2 cells. Also the effect of orientation of the Tat and CDKI domains were tested. RG2 cells were plated on 6 well plates at approximately 70% confluency. Each of the peptides was added to the wells with increasing concentration. After 1 hr, cells were removed from the plates, washed 2× with PBS, stained with propidium iodide and analyzed by FACS for viable cells.
as §2
The cytotoxicity of the chimeric peptides was characterized using a cell viability assay. Peptides were added to cells at a fixed concentration. After a 30-minute incubation, cells were removed from the plate, stained with propidium iodide and the % positive cells were determined by FACS (fluorescent activated cell scanning). The test conditions were Tat, ANT, Tat-P14ARF, ANT-P14ARF and P14ARF. T98G cells were tested along with RG2 cells and A172 cells.

Assay [3] deals with A172 glioblastoma cells. The experiment in a line: Peptide incubation with A172 glioblastoma cells, viability. In kind it is cell-based, human. The following applies: 6 μM, 30 minutes at 37° C. Here is the method: Fusion proteins containing a Tat domain and a p16 domain were synthesized as peptides. Two forms of the peptides were made, one with Tat on the amino terminus (designated Tat-P16), and the other with p16 on the amino terminus (P16-Tat). Control peptides were synthesized having only the Tat or P16 sequence. The peptides were incubated with A172 glioblastoma cells, then the cells were assayed for viability.

The subject of assay [4] is A172 cells. The experiment in a line: Fluorescein peptide uptake by A172 cells, fluorescence microscopy. As to conditions: 30 uM peptide, 1 hr, 37° C., serum containing media. The assay is classed as cell-based, human. The procedure:
(§3) For fluorescent microscopy studies cells were plated on 2 chamber cover slips at a density of 1×10^4 cells/chamber. Cells were incubated with […] peptide for 30 minutes in completed media, washed with PBS 3× and imaged using a Nikon Axiophot inverted fluorescent microscope. Images were taken using a Spot CCD camera.
Synthetic peptides derived from HIV Tat (Tat) and the Drosophila antennaepedia homeodomain (ANT) were tested for cell uptake by A172 cells (human glioblastomas). The peptides were labeled at the N-terminus with fluorescein. Cells were incubated with 30 uM peptide at 37° C. in serum containing media. Fluorescent micrographs were taken after 1 hr incubation at 37° C. […] The size of the peptide was increased by added an Mdm-2 binding domain derived from P14ARF. This domain was added to the C-terminus of the Tat and ANT peptides. The P14ARF domain was also placed at the N-terminus followed by the Tat peptide. All the peptides were labeled at the N-terminus with fluorescein and cell incubations similar to the Tat and ANT peptides were tested for cellular uptake. […] Both the bright field and fluorescent micrographs show altered cell morphology.

Assay [5] relates to RG2 cells. Briefly: Fluorescein peptide uptake by RG2 cells, fluorescence microscopy. In kind it is cell-based, rat. The procedure:
as §3
Similar observations were obtained for all the peptides in another human glioblastoma cell line, T98G.

Assay [6] relates to endothelial cells and smooth muscle cells of rat cerebral arteries. Briefly: Uptake of fluorescent peptides by pressure-mounted rat cerebral arteries. In kind it is cell-based. The procedure: Tat-P16 peptides were prepared and labeled with fluorescein for use in uptake studies using intact blood vessels isolated from rat brain. Blood vessels were dissected from rat brain and stabilized in an isolated perfusion system in which vessels were attached on either end to catheters and placed under physiological pressure. Following a 10 minute perfusion of the isolated vessels with flurorescent Tat-P16 peptide (1 μM), vessels were examined for uptake of the peptides. […] Within the endothelial cells, the labeled peptides were seen to be localized to the cell nuclei, further confirming uptake of the peptides by the cells.
The peptides are fairly labile in the media and approximately 50% are degraded upon incubation at 37° C. in complete media (qualitative analysis by PAGE) after 1 hour. […] Uptake of these peptides and cell killing activity was tested in a 3 dimensional organ culture using rat cerebral arteries cultured under physiological pressure and flow. A segment of the rat cerebral artery is surgically removed and placed in ringer's solution. Using a surgical stereoscope, the blood vessel is tied at either end to two cannulas on a teflon stage. Ringer's solution is perfused through the lumen of the vessel at a constant rate that maintains physiologic hydrostatic pressure. The fluorescent peptide was introduced intraluminally by perfusing a 1 μM solution of peptide through the lumen over a 10 minute period.
Rats were anesthetized by intraperitoneal injection of pentobarbital sodium (160 mg/kg) and killed by decapitation. The brain was removed and placed in an ice-cold oxygenated physiological cerebrospinal fluid (PCSF, see below for composition). Cerebellar arteries were isolated and mounted in an arteriograph as described previously (Knot and Nelson 1998). The arteriograph was placed on an inverted microscope and the artery was visualized with a monochrome CCD camera coupled to a calibrated video caliper system to measure arterial diameter. The arteries were slowly pressurized to 70 mmHg under no flow conditions using a pressure servo-null system (Living Systems Inc., Burlington Vt.), and warmed to 37° C. while being continuously superfused (5 ml/min) with PCSF bubbled with 21% O2, 5% CO2, 74% N2 (pH 7.35-7.40 in the bath). […] Myogenic tone is calculated by the following equation: Myogenic tone=(Dp−Da)/Dp×100
(§4) In some experiments, the arterial segments were denuded of endothelium by passing an air bubble through the lumen, thus exposing the smooth muscle cells to luminally administered peptides. Constriction to pressure and 60 mM KCl and dilation of arteries with myogenic tone to 16 mM KCl were used as benchmarks of functional arteries. Peptide containing PCSF was perfused intraluminally at an inlet pressure of 70 mmHg with the outlet open, for 20 min and then perfused with normal PCSF. This procedure ensures a 20 min of exposure of the arteries to the peptide.

In assay [7] the test system is rat cerebral arteries. Briefly: Vasodilation and vasoconstriction response of rat cerebral arteries before and after peptide. In kind it is cell-based. The following applies: after vs before intraluminal peptide. Here is the method: The blood vessels were put in culture described above and perfused with buffer of the same composition as cerebrospinal fluid. Vessel diameter was measured before and after administration of each reagent. 3 μM of each peptide was perfused through for 10 minutes followed by a 10 minute wash through. Vasoconstriction and vasodilation were determined for each vessel before peptide was applied. Perfusion was continued until the vessels relaxed to their original diamter (approximately 30 minutes). The vasoconstriction and vasodilation reponse was remeasured after the 10 minute wash through. The 60 mM KCl and 16 mM KCl conditions are […], respectively. Histamine and Bradykinin are endothelial cell vasodilators.
as §4
(§5) Effect of peptide on endothelial and smooth muscle function was evaluated by histamine (0.3 and 1 μM) and bradykinin (0.5 μM) (endothelium-dependent vasodilators) and 16 and 60 mM KCl (results in dilation and constriction of arteries by hyperpolarizing and depolarizing smooth muscle, respectively). These drug solutions were added to the superfusate and applied to the arteries extraluminally for 10 to 15 min before and after intraluminal perfusion with peptides. Effects of these agents were expressed as percent change in myogenic tone (decrease for dilators and increase for constrictors). Experiments were concluded by exposing the arteries to calcium free PCSF to obtain the passive diameter. Cell viability was determined by adding H3334 (Hoechst viability stain, final concentration 1 μM) and propidium iodide (final concentration 1 μM) to the arteriograph after the peptide incubation. Fluorescent micrographs were taken of the vessels after incubation with peptides and following addition of the vital stains using Till Photonics imaging system (Martinsried, Germany).

Assay [8] concerns rat cerebral arteries. The experiment in a line: Cell viability staining of arteries (propidium iodide, H3334) after peptide. In kind it is cell-based. As to conditions: after treatment with peptide. The procedure:
No PI statined smooth muscle cell nuclei were observed.
as §5

[9] abbreviates: intraluminal perfusion of fluorescent peptide.

The values below come from US7339042B2, “Gene delivery to tumors” (University of Florida Research Foundation, Inc., priority 2003, dated 2008).

Entries after “also recorded” stand apart in the source; their conditions may differ. No end group written: not given here.

As to “AGGGYGRKKRRQRRRMVRRFLVTLRIRRA [Tat-P14ARF]”, the “% killing (toxicity)” value in assay [1] amounted to 65%; in assay [2] (10 μM peptide, 1 hr) it was 61%. In assay [2] (dose response 1 μM to 10 μM), the IC50 – broadly, the concentration that inhibits the measured activity by half – is around 10 µM. Besides, the effect on cells result in assay [3] is “began to round up and subsequently die”. The “staining pattern (cell uptake)” value in assay [4] and in assay [5] was “nuclear staining” each time. Also, the “morphology of the endothelial cells” value in assay [6] (after intraluminal exposure) is reported as “morphology of the endothelial cells was altered”. In addition, the “labeling/uptake by endothelial cells” value in assay [6] (setting [9]) is “same labeling pattern as the Tat alone”; in assay [6] (intraluminal perfusion of fluorescent peptide, listed as Tat-P16), “taken up by the endothelial cells; also recorded: localized to the endothelial cells”. In addition, the “labeling/uptake by smooth muscle cells” value in assay [6] (setting [9]) is “No evidence was seen of uptake”. Further, the “endothelium-dependent dilation to histamine and bradykinin” value in assay [7] was “inhibited endothelial cell response to histamine and bradykinin; also recorded: significantly reduced”; in assay [7] (listed as Tat-CDKI), “lack of response to vasodilators”. Also, the “smooth muscle response to 60 and 16 mM KCl” value in assay [7] was “unaffected; also recorded: not affected”. Besides, the “propidium iodide staining of blood vessels” value in assay [8] is “predominantly horizontal endothelial nuclei being stained indicating cell death”.
